Starred links: 1 amine or outer side, 2 acyl side, 3 side chain; linkers in the order of their positions; H or OH if unused. Primed or numbered codes have the meaning given here. No end group written: not given here. *: point of attachment. SO3H = sulfated tyrosine (Y*), O=S(=O)(O)[*:2]; SO3H″ = O=S(=O)(O)*
Columns and labels:
[1] = tested on: scFv Y1 binding to glycocalicin; assay: Competitive binding ELISA of sulfated peptides to Y1; parameters: species or system human; details: for Inhibition of Y1 binding to glycocalicin by peptide: peptide preincubated with scFv Y1 at 1, 10 and 100 μM
scFv Y1 binding to glycocalicin, sequence (as listed by the source): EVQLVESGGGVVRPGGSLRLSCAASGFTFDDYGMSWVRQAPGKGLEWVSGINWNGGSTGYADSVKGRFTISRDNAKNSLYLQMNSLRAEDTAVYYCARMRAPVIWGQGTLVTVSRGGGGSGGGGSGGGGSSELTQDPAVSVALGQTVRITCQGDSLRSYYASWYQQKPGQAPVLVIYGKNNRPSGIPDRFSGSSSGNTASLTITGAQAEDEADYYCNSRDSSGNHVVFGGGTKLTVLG
Protocol: A competitive binding ELISA assay was used to assess the importance of position of sulfated tyrosines to the binding of peptides to Y1.
Glycocalicin was immobilized on a Maxisorb plate. scFv Y1 was preincubated with a peptide of interest for 10 minutes at three different concentrations (1, 10 and 100 μM) in order to observe a dose response. (Table 12). After preincubation, the mixture (Y1+peptide) was added to the plate, and binding of scFv Y1 was assessed using polyclonal rabbit anti-VL, which recognizes the VL chain of scFv Y1, followed by anti-rabbit-HRP. In mixtures in which the peptide bound to scFv Y1, a decrease in the binding of scFv Y1 to glycocalicin compared to control binding was observed.

washed platelets = assay: Competitive FACS: effect of synthetic GPIbα peptides on Y1 binding to washed platelets; parameters: species or system human
Protocol: (§1) ELISA assays were developed to evaluate the effect of the GPIb derived synthetic peptides on the binding of Y1 to purified glycocalicin. In addition, FACS analysis using washed platelets was carried out. To evaluate the importance of sulfated tyrosine within the Y1 binding site of GPIb, a competitive binding FACS analysis was used. Y1-scFv at a concentration of 1 μg was preincubated with different peptides at concentrations of 2.5 and 200 μM. After a preincubation for 30 minutes at room temperature the mixture was added to a tube containing ˜10^7 washed platelets and the binding of Y1 to the washed platelets was assessed using polyclonal rabbit anti-scFv-PE. The inhibitory effect of the peptides compared to control binding (Y1 alone) was evaluated by measuring the residual binding of Y1 to washed platelets. The peptides and the results are described in Table 1 and are similar to results that were observed using the same peptides in an ELISA assay (Table B). In both assays, a control level of Y1 binding was determined, as follows. A polystyrene microtiter maxisorb plate was coated with (a) purified glycocalicin or (b) washed platelets. After extensive washing, 0.5 μg/well of Y1 was added. The plate was then incubated with rabbit anti-scFv followed by addition of anti rabbit-HRP (horse radish peroxidase) and HRP substrate. The level of anti rabbit-HRP binding was measured by the intensity of the color produced, and the level of anti rabbit-HRP binding correlates with the level of binding of anti Y1-scFv and the level of binding of Y1. The optical density was measured at A405. Each sample was assayed in duplicate, and the average was calculated.

[2] = tested on: Y1 Binding to Glycocalicin; assay: ELISA: effect of synthetic GPIbα peptides on Y1 binding to purified glycocalicin; parameters: species or system human; details: 0.25 μg/well Y1
Y1 Binding to Glycocalicin, sequence (as listed by the source): as above
Protocol: as §1, with “After extensive washing, 0.5 μg/well of Y1 was added.” left out
The effect of synthetic GPIbα peptides on Y1 binding to purified glycocalicin was evaluated by mixing varying concentrations of the peptides with a constant amount of Y1. After a preincubation for 30 minutes at room temperature, the mixture was added to a polystyrene microtiter maxisorb plate coated with purified glycocalicin, as described for evaluation of Y1 binding in the absence of peptides. The inhibitory effect of the peptides was evaluated by measuring the residual binding of Y1 to glycocalicin using rabbit anti Y1 scFv and anti rabbit-HRP antibodies, as described for evaluation of Y1 binding in the absence of peptides. This study was performed with four peptides representing various subsets of the sequence 268 to 285 and a control peptide. Each peptide was tested at different concentrations: 200 μM, 25 μM, 2.5 μM, and 0.5 μM.

KG-1 cells = assay: AML KG-1 model in NOD/SCID mice; format: in vivo; details: for percentage of KG-1 cells in bone marrow compared to untreated group 2: Doxorubicin 0.1 mg/kg 3 times per week, CONY1-Doxorubicin 75 μg/mouse 3 times per week, Mylotarg 0.2 mg/kg 1 time per week
Protocol: The in vivo mouse model for human AML uses SCID/NOD mice (Jackson Laboratories) inoculated with KG-1 cells derived from a human AML cell line.
In a first experiment, NOD/SCID mice were pretreated with 100 mg/kg CYTOXAN®. Four days post CYTOXAN® injection, KG-1 cells were injected intravenously into the tail vein of six groups of mice. (Table N, Groups 2 and 5-9). One group of mice (Table N, Group 1) was injected with PBS alone (control).
Beginning 19 days post KG-1 injection mice were treated with: CONY1, Doxorubicin, CONY1-Doxorubicin conjugate, or Mylotarg®. (Mylotarg® is a monoclonal antibody (anti CD33) conjugated chemically to calcheamicin recently approved by the FDA for treatment of AML patients age 60 and over in a first relapse.) Mice were treated once or three times per week for three weeks. One group (group 2) of KG-1 inoculated mice were left untreated. (Table N). Two other groups of mice (groups 3 and 4) were injected with KG-1 cells that were previously incubated with CONY1 or 181-scFv (a negative, non-specific control antibody) in serum free RPMI containing 1% BSA at 4° C. for 1 h. The antibodies were used at a concentration of 0.25 mg scFv/l 10^8 cells (75 μg/mouse). Before injection into the mice the preincubated KG-1 cells were washed and resuspended in RPMI. The KG-1 cells in RPMI were inoculated into mice at a concentration of 75 μg scFv/0.2 ml RPMI per mouse. Group 3 mice were inoculated with KG-1+CONY1, and group4 mice were inoculated with KG-1+181-scFv. (Table N). This treatment (group 3 and 4) was carried out one day after the inoculation of groups 1-2 and 5-9, i.e., at five days after CYTOXAN injection.
Mice were sacrificed from 60 to 65 days post cell injection. Bone marrow samples were analyzed by flow cytometry using mouse anti human CD34-FITC (IQP 144F) (or anti CD44-FITC (MCA89F, Serotec)) and Y1-Biotin/SAV-PE. Mouse IgG1-FITC (IQP 191-F) was used as an isotype control, and mouse IgG2a-FITC (MCA929F, Serotec) was used as a negative control. Flow cytometry was performed using FACSCalibur system and CellQwest software, Becton Dickinson.
An additional experiment was performed in which SCID-NOD mice were i.v. injected with 3×10^4 MOLT-4 cells/mouse 5 days post treatment with cyclophosphamide. Anti-cancer agents or PBS were injected IV three times/week, from day 14 onward. On day 60, blood was drawn, then the animals were sacrificed. Bone marrow was extracted and analyzed by FACS analysis using a commercially available antiCD44 antibody for the detection of MOLT-4 cells in the mice bone marrow cell population.

## QATEY*EY*LDYDFLPETE (QATEY(SO3H)EY(SO3H)LDYDFLPETE) [P-Y* Y*Y, PSGL-1 n-terminus peptide, sulfated]
[1]
  Inhibition of Y1 binding to glycocalicin by peptide: inhibited Y1 binding to glycocalicin

## REEGRQHFFLLEGRSSYS [negative control peptide, reference compound]
Washed platelets; peptide 2.5 μM
  Residual Binding of Y1 (% of baseline) (Geo Mean): 96 % of baseline
[2]; peptide 2.5 μM
  Residual Binding of Y1 (% of baseline): 100 % of baseline
[2]; peptide 25 μM
  Residual Binding of Y1 (% of baseline): 89 % of baseline
[2]; peptide 200 μM
  Residual Binding of Y1 (% of baseline): 85 % of baseline

## GDEGDTDLY*DY*Y*P (GDEGDTDLYDYYP; not fully specified (residues 9, 11, 12); printed as GDEGDTDLY*DY*Y*P) [P-3-S, residues 268-280 of GPIbα]
Washed platelets; peptide 2.5 μM
  Residual Binding of Y1 (% of baseline) (Geo Mean): 82 % of baseline
Washed platelets; peptide 200 μM
  Residual Binding of Y1 (% of baseline) (Geo Mean): 26 % of baseline
[2]; peptide 0.5 μM
  Residual Binding of Y1 (% of baseline): 80 % of baseline
[2]; peptide 2.5 μM
  Residual Binding of Y1 (% of baseline): 67 % of baseline
[2]; peptide 25 μM
  Residual Binding of Y1 (% of baseline): 21 % of baseline

## GDEGDTDLYDYYPEEDTE [P-1, residues 268-285 of GPIbα, non-sulfated]
Washed platelets; peptide 200 μM
  Residual Binding of Y1 (% of baseline) (Geo Mean): 87 % of baseline
[2]; peptide 0.5 μM
  Residual Binding of Y1 (% of baseline): 88 % of baseline
[2]; peptide 2.5 μM
  Residual Binding of Y1 (% of baseline): 94 % of baseline
[2]; peptide 25 μM
  Residual Binding of Y1 (% of baseline): 71 % of baseline
[2]; peptide 200 μM
  Residual Binding of Y1 (% of baseline): 61 % of baseline

## QATEY*EYLDYDFLPETE (QATEY(SO3H)EYLDYDFLPETE) [P-Y*YY, PSGL-1 n-terminus peptide, sulfated]
[1]; competitive ELISA, scFv Y1 on glycocalicin
  peptide concentration at which binding is inhibited efficiently: 100 µM
[1]
  Inhibition of Y1 binding to glycocalicin by peptide: inhibited Y1 binding to glycocalicin

## GDEGDTDLY*DY*Y*PEEDTE (GDEGDTDLYDYYPEEDTE; not fully specified (residues 9, 11, 12); printed as GDEGDTDLY*DY*Y*PEEDTE) [P-1-S, residues 268-285 of GPIbα, Y* sulfated tyrosine]
Washed platelets; peptide 2.5 μM
  Residual Binding of Y1 (% of baseline) (Geo Mean): 41 % of baseline
Washed platelets; peptide 200 μM
  Residual Binding of Y1 (% of baseline) (Geo Mean): 5 % of baseline
[1]
  Inhibition of Y1 binding to glycocalicin by peptide: did inhibit the binding
[2]; peptide 0.5 μM
  Residual Binding of Y1 (% of baseline): 89 % of baseline
[2]; peptide 2.5 μM
  Residual Binding of Y1 (% of baseline): 62 % of baseline
[2]; peptide 25 μM
  Residual Binding of Y1 (% of baseline): 25 % of baseline
[2]; peptide 200 μM
  Residual Binding of Y1 (% of baseline): 0 % of baseline

## QATEY*EYLDY*DFLPETE (QATEY(SO3H)EYLDY(SO3H)DFLPETE) [P-Y*Y Y*, PSGL-1 n-terminus peptide, sulfated]
[1]
  Inhibition of Y1 binding to glycocalicin by peptide: inhibited Y1 binding to glycocalicin

## TDLY*DY*Y*PEEDTE (TDLYDYYPEEDTE; not fully specified (residues 4, 6, 7); printed as TDLY*DY*Y*PEEDTE) [P-2-S, residues 273-285 of GPIbα]
Washed platelets; peptide 2.5 μM
  Residual Binding of Y1 (% of baseline) (Geo Mean): 61 % of baseline
Washed platelets; peptide 200 μM
  Residual Binding of Y1 (% of baseline) (Geo Mean): 7 % of baseline
[2]; peptide 0.5 μM
  Residual Binding of Y1 (% of baseline): 78 % of baseline
[2]; peptide 2.5 μM
  Residual Binding of Y1 (% of baseline): 52 % of baseline
[2]; peptide 25 μM
  Residual Binding of Y1 (% of baseline): 15 % of baseline

## QATEYEY*LDY*DFLPETE (QATEYEY(SO3H″)LDY(SO3H″)DFLPETE) [P-YY* Y*, PSGL-1 n-terminus peptide, sulfated]
[1]
  Inhibition of Y1 binding to glycocalicin by peptide: best inhibitors

## QATEYEY*LDYDFLPETE (QATEYEY(SO3H)LDYDFLPETE) [P-YY*Y, PSGL-1 n-terminus peptide, sulfated]
[1]
  Inhibition of Y1 binding to glycocalicin by peptide: inhibited Y1 binding to glycocalicin

## COc1cccc2c1C(=O)c1c(O)c3c(c(O)c1C2=O)C[C@@](O)(C(=O)CO)C[C@@H]3O[C@H]1C[C@H](N)[C@H](O)[C@H](C)O1 [Doxorubicin]
KG-1 cells; additional experiment, day 60
  reduction in the number of tumor cells in the bone marrow: 50%
KG-1 cells; first experiment, group 7, 5 mg/kg, 1 time per week
  mice that died within three weeks after treatment initiation: Nine out of 10
KG-1 cells; first experiment
  percentage of KG-1 cells in bone marrow compared to untreated group 2: statistically significant (p<0.05) lower percentage

## Mylotarg: monoclonal antibody (anti CD33) conjugated chemically to calcheamicin
KG-1 cells; additional experiment, day 60, CONY1 scFv 75 μg/mouse three times/week, Mylotarg 7 μg/mouse once a week
  prevalence of cancer cells in the bone marrow: completely inhibited
KG-1 cells; first experiment
  percentage of KG-1 cells in bone marrow compared to untreated group 2: free of KG 1 cells

Reference: patent US20040001822A1, “Y1-isolated molecules comprising epitopes containing sulfated moieties, antibodies to such epitopes, and uses thereof” (priority 2000, published 2004)
